Type in all cases: functional
The subject of test [1] is Enterococcus. Briefly: In vitro antibacterial activity against Enterococcus ATCC 29212.
The subject of test [2] is Escherichia coli. Briefly: In vitro antibacterial activity against Escherichia coli J3272 Tet C.
Test [3] concerns Escherichia coli. Briefly: In vitro antibacterial activity against Escherichia coli J3272 Tet D.
Test [4] deals with Escherichia coli. Briefly: In vitro antibacterial activity against Escherichia coli PRP1 Tet A.
Test [5] deals with Escherichia coli. In words: In vitro antibacterial activity against Escherichia coli UBMS 88-1 Tet B.
Test [6] relates to Escherichia coli. Briefly: In vitro antibacterial activity against Escherichia coli UBMS 90-4 Tet M.
Test [7] concerns Escherichia coli. Briefly: In vitro antibacterial activity against Escherichia coli UBMS 90-5 sensitive.
Test [8] concerns Staphylococcus aureus. Briefly: In vitro antibacterial activity against Staphylococcus aureus Smith sensitive.
For test [9], the system named is Staphylococcus aureus. Briefly: In vitro antibacterial activity against Staphylococcus aureus UBMS 90-1 Tet M.
Test [10] deals with Staphylococcus aureus. In words: In vitro antibacterial activity against Staphylococcus aureus UBMS 90-3 sensitive.
Test [11] relates to Staphylococcus aureus. Briefly: In vitro antibacterial activity against Staphylococcus aureus UBMS 88-7 Tet K.

Molecules are shown by their SMILES. In brackets after ≈: the same amount, converted by molar mass.

By MIC is commonly meant the smallest concentration in the dilution series that meets the test's criterion for growth inhibition. Low values mean inhibition by little substance, high ones a need for much substance. For `CN(C)c1cc(NC(=O)CNCc2ccccc2)c(O)c2c1CC1CC3[C@H](N(C)C)C(=O)C(C(N)=O)=C(O)[C@@]3(O)C(=O)C1=C2O` (stereo not given in full), the MIC in [1] amounted to 0.25 µg/mL (≈ 0.403 µM); in test [2], 2 µg/mL (≈ 3.23 µM); in [3], 0.5 µg/mL (≈ 0.807 µM); in test [4], 4 µg/mL (≈ 6.45 µM); in test [5], 2 µg/mL (≈ 3.23 µM); in test [6] it was 0.5 µg/mL (≈ 0.807 µM). Also, the MIC in test [7] was 0.5 µg/mL (≈ 0.807 µM); in test [8], 0.25 µg/mL (≈ 0.403 µM); in test [9], 0.5 µg/mL (≈ 0.807 µM); in test [10], 0.25 µg/mL (≈ 0.403 µM); in test [11] it was 2 µg/mL (≈ 3.23 µM).
Take `CN(C)c1cc(NC(=O)CNCc2ccccn2)c(O)c2c1CC1CC3[C@H](N(C)C)C(=O)C(C(N)=O)=C(O)[C@@]3(O)C(=O)C1=C2O` (stereo not given in full): the MIC in test [1] is 2 µg/mL (≈ 3.22 µM); in [2], 16 µg/mL (≈ 25.8 µM); in [3], 8 µg/mL (≈ 12.9 µM); in test [4], 32 µg/mL (≈ 51.6 µM); in [5], 16 µg/mL (≈ 25.8 µM); in [6], 8 µg/mL (≈ 12.9 µM). Also, the minimum inhibitory concentration (MIC) in test [7] worked out at 16 µg/mL (≈ 25.8 µM); in test [8], 4 µg/mL (≈ 6.44 µM); in test [9], 8 µg/mL (≈ 12.9 µM); in test [10], 4 µg/mL (≈ 6.44 µM); in test [11], 32 µg/mL (≈ 51.6 µM).
Take `CN(C)c1ccc(O)c2c1C[C@H]1C[C@H]3[C@H](N(C)C)C(O)=C(C(N)=O)C(=O)[C@@]3(O)C(O)=C1C2=O` [MINOCYCLINE]: the MIC in test [1] is 4 µg/mL (≈ 8.74 µM); in test [2] it was 32 µg/mL (≈ 69.9 µM); in [3], 4 µg/mL (≈ 8.74 µM); in test [4], greater than 32 µg/mL; in test [5], greater than 32 µg/mL; in [6] it was 16 µg/mL (≈ 35 µM). Besides, the MIC was found to be 16 µg/mL (≈ 35 µM) in [7]; 2 µg/mL (≈ 4.37 µM) in test [8]; 8 µg/mL (≈ 17.5 µM) in test [9]; 2 µg/mL (≈ 4.37 µM) in test [10]; 16 µg/mL (≈ 35 µM) in test [11].
With `CN(C)[C@@H]1C(O)=C(C(N)=O)C(=O)[C@@]2(O)C(O)=C3C(=O)c4c(O)cccc4[C@@](C)(O)[C@H]3C[C@@H]12` [TETRACYCLINE], the MIC in [1] was 16 µg/mL (≈ 36 µM); in test [2] it was greater than 32 µg/mL; in test [3], 8 µg/mL (≈ 18 µM); in [4] it was 32 µg/mL (≈ 72 µM); in [5], greater than 32 µg/mL; in [6] it was greater than 32 µg/mL. Also, the MIC in [7] was 1 µg/mL (≈ 2.25 µM); in [8], 0.25 µg/mL (≈ 0.563 µM); in test [9] it was greater than 32 µg/mL; in [10] it was 0.25 µg/mL (≈ 0.563 µM); in [11], greater than 32 µg/mL.
As to `CN(C)c1cc(NC(=O)CNC(C)(C)C)c(O)c2c1C[C@H]1C[C@H]3[C@H](N(C)C)C(O)=C(C(N)=O)C(=O)[C@@]3(O)C(O)=C1C2=O` [TIGECYCLINE], the MIC in test [1] came to 0.12 µg/mL (≈ 0.205 µM); in test [2], 0.25 µg/mL (≈ 0.427 µM); in test [3], 0.12 µg/mL (≈ 0.205 µM); in test [4], 0.25 µg/mL (≈ 0.427 µM); in test [5], 0.5 µg/mL (≈ 0.854 µM); in test [6] it was 0.12 µg/mL (≈ 0.205 µM). Besides, the MIC in test [7] was found to be 0.25 µg/mL (≈ 0.427 µM); in test [8] it was 0.25 µg/mL (≈ 0.427 µM); in test [9] it was 0.12 µg/mL (≈ 0.205 µM); in test [10] it was 0.25 µg/mL (≈ 0.427 µM); in test [11], 0.5 µg/mL (≈ 0.854 µM).

Values taken from ChEMBL document CHEMBL1131723, “Synthesis and structure-activity relationship of novel glycylcycline derivatives leading to the discovery of GAR-936” (1999).
